Positions of bridges follow the written chain, without caps; N, C: chain ends. Non-standard residues stand in square brackets, D forms with d. Residues, ends and D or L forms follow the SMILES beside them. *: point of attachment. X1 = CC(=O)O[C@H]1C(=O)[C@@]2(C)[C@H]([C@H](OC(=O)c3ccccc3)[C@]3(O)C[C@H](OC(=O)[C@H](OC(=O)OCc4ccc(N*)cc4)[C@@H](NC(=O)c4ccccc4)c4ccccc4)C(C)=C1C3(C)C)[C@]1(OC(C)=O)CO[C@@H]1C[C@@H]2O; Cit = NC(=O)NCCC[C@H](N)C(=O)O
Test system: SJSA-1
Test: Cytotoxicity against human SJSA1 cells expressing GRP78 after 6 hrs by MTT assay
Format: functional, cell-based
Conditions: SJSA-1, 6 h

Row | Structure (SMILES) | IC50 [nM]
1 | CC(=O)N[C@H]1CSSC[C@@H](C(=O)N[C@H](C(=O)N[C@@H](CCCNC(N)=O)C(=O)N[C@H](C(=O)N[C@@H](CCCNC(N)=O)C(=O)Nc2ccc(COC(=O)O[C@@H](C(=O)O[C@H]3C[C@@]4(O)[C@@H](OC(=O)c5ccccc5)[C@@H]5[C@]6(OC(C)=O)CO[C@@H]6C[C@H](O)[C@@]5(C)C(=O)[C@H](OC(C)=O)C(=C3C)C4(C)C)[C@@H](NC(=O)c3ccccc3)c3ccccc3)cc2)C(C)C)C(C)C)NC(=O)[C@H](C(C)C)NC(=O)[C@H](CCCNC(=N)N)NC(=O)[C@H](C(C)C)NC(=O)[C@H](Cc2ccc(O)cc2)NC(=O)CNC(=O)CNC(=O)[C@@H]2CCCN2C(=O)[C@H](CC(C)C)NC(=O)[C@H](C)NC(=O)[C@H](C(C)C)NC(=O)[C@H]([C@@H](C)O)NC1=O (Ac-CTVALPGGYVRVCV[Cit]V[Cit]-X1; disulfide 1-13) | 1.1
2 | COc1cccc2c1C(=O)c1c(O)c3c(c(O)c1C2=O)C[C@@](O)(C(=O)CO)C[C@@H]3O[C@H]1C[C@H](N)[C@H](O)[C@H](C)O1 [DOXORUBICIN] | 6.2
3 | CC(=O)O[C@H]1C(=O)[C@@]2(C)[C@H]([C@H](OC(=O)c3ccccc3)[C@]3(O)C[C@H](OC(=O)[C@H](O)[C@@H](NC(=O)c4ccccc4)c4ccccc4)C(C)=C1C3(C)C)[C@]1(OC(C)=O)CO[C@@H]1C[C@@H]2O [PACLITAXEL] | 3.2
